Patent publication US20240174611A1 (Rappta Therapeutics Oy, priority 2021, published 2024)

Columns and labels:
[1] = test system: HCC1937 cells; assay: HCC1937 cell viability assay (MTS); format: cell-based; settings: Homo sapiens, HCC1937 cell line (footnote a), 48 hours treatment
Description: HCC1937 cell line HCC1937 cells are plated in a 96 well plate format at a density of 10,000 cells per well. After incubation overnight, cells are treated with compounds 1-100 at following concentrations: 80, 40, 20, 10, 5, 2.5, 1.25 μM. Compound concentrations are prepared in RPMI via serial dilutions from a starting stock of 80 mM. 48 hours after compound treatment, cell viability is assessed using the Promega CellTiter 96 aqueous one proliferation assay (Promega G3582, MTS assay) according to manufacturer's protocol.
(§1) The cell viability data was analyzed with GraphPad Prism software. The values were log transformed and analyzed with non-linear regression (curve-fit) using log(inhibitor) vs. response—variable slope (four parameters) and constraining the bottom to equal zero. Unless otherwise indicated, the GI50 values provided in Table 35 correspond to the LNCaP cell viability assays.

[2] = test system: LNCaP cells; assay: LNCaP cell viability assay (MTS); format: cell-based; settings: LNCaP cell line, 48 hours treatment
Description: LNCaP cell line was used for the cell viability assay. LNCaP cells were plated in 96-well plates at a density of 5000 cells per well. After 24 hours of plating, the cells were treated with increasing doses of compound 1-100 ranging from 1 μM to 80 μM. Relative cell numbers were analyzed after 48 hours using 3-(4,5-dimethylthiazol-2-yl)-5-(3-carboxymethoxyphenyl)-2-(4-sulfophenyl)-2H-tetrazolium (MTS) assay (Promega) according to the manufacturer's instructions.
as §1

Structure (SMILES) | GI50 ([2]; Homo sapiens, LNCaP, 48 h) | further results
O=S(=O)(NC1(c2ccc(F)cn2)CCNCC1)c1ccc(OC(F)(F)F)cc1 [Compound 65, N-(4-(5-fluoropyridin-2-yl)piperidin-4-yl)-4-(trifluoromethoxy)benzenesulfonamide] | – | GI50 [1]: 75.1 µM
Nc1cc(S(=O)(=O)NC2(c3ccc(F)cc3)CCNC2)ccc1OC(F)(F)F (centres unmarked) [Compound 92, 3-amino-N-(3-(4-fluorophenyl)pyrrolidin-3-yl)-4-(trifluoromethoxy)benzenesulfonamide] | – | GI50 [1]: 50.3 µM
NS(=O)(=NC1(c2ccc(Cl)cc2)CCNCC1)c1ccc(OC(F)(F)F)cc1 (centres unmarked) [Compound 96, N′-(4-(4-chlorophenyl)piperidin-4-yl)-4-(trifluoromethoxy)benzenesulfonimidamide] | 13.7 µM | –
CC(C)(C)OC(=O)N1CCCC1C1(NS(=O)(=O)c2ccc(OC(F)(F)F)cc2)CC1 (centres unmarked) [Compound 23] | 26 µM | –
O=S(=O)(NC1(c2ccc(Cl)cc2)CCNCC1)C12CC(C(F)(F)F)(C1)C2 [Compound 98, N-(4-(4-chlorophenyl)piperidin-4-yl)-3-(trifluoromethyl)bicyclo[1.1.1]pentane-1-sulfonamide] | 46.6 µM | –
O=S(=O)(NC1(c2cccc(Cl)c2)CCCC1)c1ccc(OC(F)(F)F)cc1 [Compound 14, N-(1-(3-chlorophenyl)cyclopentyl)-4-(trifluoromethoxy)benzene-sulfonamide] | 42.8 µM | –
O=S(=O)(NC1(c2ccc(Cl)cc2)CCN(Cc2ccccc2)C1)c1ccc(Oc2ccc(C(F)(F)F)cc2)cc1 (centres unmarked) [Compound 54, N-(1-benzyl-3-(4-chlorophenyl)pyrrolidin-3-yl)-4-(4-(trifluoromethyl)phenoxy)benzenesulfonamide] | 26.8 µM | –
CC(C)(C)OC(=O)N1CCC(NS(=O)(=O)c2ccc(OC(F)(F)F)cc2)(c2ccc(Cl)cc2)CC1 [Compound 53, tert-butyl 4-(4-chlorophenyl)-4-((4-(trifluoromethoxy)phenyl)sulfonamido)piperidine-1-carboxylate] | 16.3 µM | –
O=S(=O)(NC1(c2ccc(Cl)c(Cl)c2)CC1)c1ccc(OC(F)(F)F)cc1 [Compound 89, N-(1-(3,4-dichlorophenyl)cyclopropyl)-4-(trifluoromethoxy)benzenesulfonamide] | 46.6 µM | –
N=S(=O)(NC1(c2ccc(F)cc2)CCNC1)c1ccc(OC(F)(F)F)cc1 (centres unmarked) [Compound 84, N-(3-(4-fluorophenyl)pyrrolidin-3-yl)-4-(trifluoromethoxy)benzenesulfonimidamide] | – | GI50 [1]: 75.1 µM
O=S(=O)(NC1(c2ccc(Cl)cc2)CNC1)c1ccc(OC(F)(F)F)cc1 [Compound 47, N-(3-(4-chlorophenyl)azetidin-3-yl)-4-(trifluoromethoxy)benzenesulfonamide] | 31.8 µM | –
CN=S(=O)(NC1(c2ccc(Cl)cc2)CCNC1)c1ccc(OC(F)(F)F)cc1 (centres unmarked) [Compound 68, N-(3-(4-chlorophenyl)pyrrolidin-3-yl)-N′-methyl-4-(trifluoromethoxy)benzenesulfonimidamide] | 27.2 µM | –
O=S(=O)(NC1(c2ccc(Cl)c(F)c2)CCNCC1)c1ccc(OC(F)(F)F)cc1 [Compound 56, N-(4-(4-chloro-3-fluorophenyl)piperidin-4-yl)-4-(trifluoromethoxy)benzenesulfonamide] | 11 µM | –
O=S(=O)(NC1(c2ccc(F)cc2F)CCNCC1)c1ccc(OC(F)(F)F)cc1 [Compound 83, N-(4-(2,4-difluorophenyl)piperidin-4-yl)-4-(trifluoromethoxy)benzenesulfonamide] | 32 µM | –
O=S(=O)(NC1CCCC1c1ccc(Cl)c(Cl)c1)c1ccc(OC(F)(F)F)cc1 (single isomer, unassigned) [Compound 44, N-(2-(3,4-dichlorophenyl)cyclopentyl)-4-(trifluoromethoxy)benzenesulfonamide] | – | GI50 [2]: 45.4 µM
O=S(=O)(NC1(c2ccc(Cl)s2)CCNCC1)c1ccc(OC(F)(F)F)cc1 [Compound 91, N-(4-(5-chlorothiophen-2-yl)piperidin-4-yl)-4-(trifluoromethoxy)benzenesulfonamide] | 9.6 µM | –
COC(=O)C#CC1(NS(=O)(=O)c2ccc(OC(F)(F)F)cc2)CCCC1 [Compound 19] | 43 µM | –
CC(C)Oc1ccc(S(=O)(=O)NC2(c3ccc(Cl)cc3)CCNCC2)cc1 [Compound 62, N-(4-(4-chlorophenyl)piperidin-4-yl)-4-isopropoxybenzenesulfonamide] | 11.3 µM | –
O=C1C(NS(=O)(=O)c2ccc(OC(F)(F)F)cc2)CCCN1Cc1cccc(C(F)(F)F)c1 (centres unmarked) [Compound 16] | 34.4 µM | –
CCC1CC1(NS(=O)(=O)c1ccc(OC(F)(F)F)cc1)c1cccc(C)c1 (centres unmarked) [Compound 28, N-(2-ethyl-1-(m-tolyl)cyclopropyl)-4-(trifluoromethoxy)benzene-sulfonamide] | 62 µM | –
CC(C)CCN1CCC(NS(=O)(=O)c2ccc(OC(F)(F)F)cc2)(c2ccc(Cl)cc2)C1 (centres unmarked) [Compound 76, N-(3-(4-chlorophenyl)-1-isopentylpyrrolidin-3-yl)-4-(trifluoromethoxy)benzenesulfonamide] | – | GI50 [1]: 19.9 µM
O=S(=O)(NC1(c2ccccc2)CCNCC1)c1ccc(OC(F)(F)F)cc1 [Compound 50, N-(4-phenylpiperidin-4-yl)-4-(trifluoromethoxy)benzenesulfonamide] | 23.3 µM | –
COc1cccc(C2(NS(=O)(=O)c3ccc(OC(F)(F)F)cc3)CCCC2)c1 [Compound 15] | 49.2 µM | –
Nc1cc(S(=O)(=O)NC2(c3ccc(Cl)cc3)CCNCC2)ccc1OC(F)(F)F [Compound 99, 3-amino-N-(4-(4-chlorophenyl)piperidin-4-yl)-4-(trifluoromethoxy)benzenesulfonamide] | 46.1 µM | –
CC(C)Oc1ccc(S(=O)(=O)NC2(c3ccc(Cl)cc3)CCNC2)cn1 (centres unmarked) [Compound 80, N-(3-(4-chlorophenyl)pyrrolidin-3-yl)-6-isopropoxypyridine-3-sulfonamide] | 50 µM | –

The next lines start with results.

GI50 ([2]; Homo sapiens, LNCaP, 48 h) | Structure (SMILES) | further results
38.1 µM | CC(=O)Nc1ccc(S(=O)(=O)N2CCC(NS(=O)(=O)c3ccc(OC(F)(F)F)cc3)CC2)cc1 [Compound 1] | –
41.7 µM | CC(C)Oc1ccc(S(=O)(=O)NC2(c3ccc(F)cc3)CCNCC2)cn1 [Compound 77, N-(4-(4-fluorophenyl)piperidin-4-yl)-6-isopropoxypyridine-3-sulfonamide] | –
56.4 µM | O=S(=O)(NC1(c2ncc(Cl)s2)CCNCC1)c1ccc(OC(F)(F)F)cc1 [Compound 73, N-(4-(5-chlorothiazol-2-yl)piperidin-4-yl)-4-(trifluoromethoxy)benzenesulfonamide] | –
11 µM | O=S(=O)(NC1(c2ccc(Cl)cc2)CCNCC1)c1ccc(OC(F)(F)F)cc1 [Compound 45, N-(4-(4-chlorophenyl)piperidin-4-yl)-4-(trifluoromethoxy)benzenesulfonamide] | –
51.5 µM | CN1CC[C@@H](NS(=O)(=O)c2ccc(OC(F)(F)F)cc2)[C@@H]1c1ccc(Cl)cc1 (racemic) [Compound 9] | –
44.2 µM | O=S(=O)(NC1CCc2c(Cl)cc(Cl)cc21)c1ccc(OC(F)(F)F)cc1 (centres unmarked) [Compound 11, N-(4,6-dichloro-2,3-dihydro-1H-inden-1-yl)-4-(trifluoromethoxy)benzene-sulfonamide] | –
68.6 µM | O=S(=O)(NC1(C23CC(C2)C3)CCNCC1)c1ccc(OC(F)(F)F)cc1 [Compound 66, N-(4-(bicyclo[1.1.1]pentan-1-yl)piperidin-4-yl)-4-(trifluoromethoxy)benzenesulfonamide] | –
44.1 µM | CN1CCC(NS(=O)(=O)c2ccc(OC(F)(F)F)cc2)(c2ccccc2)CC1 [Compound 61, N-(1-methyl-4-phenylpiperidin-4-yl)-4-(trifluoromethoxy)benzenesulfonamide] | –
67.2 µM | O=S(=O)(N[C@@H]1C[C@H]1c1ccc(Cl)cc1)c1ccc(OC(F)(F)F)cc1 (racemic) [Compound 42, rac N-((1R,2S)-2-(4-chlorophenyl)cyclopropyl)-4-(trifluoromethoxy)benzenesulfonamide] | –
44.9 µM | O=S(=O)(NC1(c2ccc(Cl)cc2)CCNC1)c1ccc(OC(F)(F)F)nc1 (centres unmarked) [Compound 64, N-(3-(4-chlorophenyl)pyrrolidin-3-yl)-6-(trifluoromethoxy)pyridine-3-sulfonamide] | –
